# Assay results published in patent US11298367B2, “Prodrugs of substituted triazole derivatives and uses thereof” (Bayer Aktiengesellschaft, priority 2017, dated 2022).
# What was measured:
# [1] = Solubility; type: physicochemical; settings: 24 h room temperature, max. 500 μg/ml; for solubility at 24 h: thermodynamic from solid
# Protocol: For each substance 0.5-0.6 mg are weighed exactly. In each case, sufficient medium is added to the sample in such a way that a concentration of c=500 μg/ml is obtained. This sample solution is shaken for 24 h at room temperature and 1400 rpm.
# A further sample weight of 0.5-0.6 mg is required for the DMSO calibration solution. This sample is filled with DMSO to a concentration of c=600 μg/ml. Two calibration solutions are prepared from this stock solution. In a 2 ml HPLC vial, 1000 μl of DMSO are initially introduced and 34.4 μl of the stock solution are pipetted (c=20 µg/ml). […] of this solution (c=20 μg/ml) are placed in a further 2 ml HPLC vial containing 500 μl of DMSO (c=2.5 μg/ml).
# After shaking the test solutions, 230 μl of the supernatant are transferred into a centrifuge tube and centrifuged at 42 000 rpm (223 000 g) for 30 min. 180 μl of the supernatant are then taken and each diluted with DMSO (1:5 sample 1; 1:100 sample 2), and transferred to HPLC vials. The two calibration solutions and the dilute sample solutions are analyzed by HPLC. Quantification is performed over the corresponding peak areas.
# Distilled water; trifluoroacetic acid (Merck; 1.08262.0100); acetonitrile (HPLC grade); DMSO (Merck; 8.02912.2500).
# Fluka buffer, Order No. 33643 (11.76 g citric acid, 2.57 g sodium chloride and 2.72 g sodium hydroxide).
# Fluka buffer, Order No. 33646 (3.52 g potassium dihydrogenphosphate, 7.26 g sodium hydrogen phosphate).
# Solution of 6.18 g sodium chloride and 3.96 g sodium dihydrogen phosphate in 1 L distilled water, adjust with 1M aqueous sodium hydroxide solution to pH 7.4.
# 0.6057 g TRIS was dissolved in 95 ml water, adjust to pH 8.5 with aqueous hydrochloric acid, fill with water until 100 ml volume is reached.
# [2] = molecular target: T1, human V1a receptor (Homo sapiens, UniProt P37288); assay: Cellular in vitro assay for vasopressin receptor activity (V1a, aequorin luminescence); type: cell-based; settings: for IC50: CHO cell line with human V1a receptor, [Arg8]-vasopressin at EC50, values are for the prodrug as such, read-out: IC50 hV1a; for ratio IC50 hV2/hV1a: selectivity ratio hV2/hV1a
# T1 construct: expressed in transfected cells; host or cells: CHO K1 (Chinese hamster ovary), also stably transfected with a modified aequorin
# T1 sequence (P37288 whole entry): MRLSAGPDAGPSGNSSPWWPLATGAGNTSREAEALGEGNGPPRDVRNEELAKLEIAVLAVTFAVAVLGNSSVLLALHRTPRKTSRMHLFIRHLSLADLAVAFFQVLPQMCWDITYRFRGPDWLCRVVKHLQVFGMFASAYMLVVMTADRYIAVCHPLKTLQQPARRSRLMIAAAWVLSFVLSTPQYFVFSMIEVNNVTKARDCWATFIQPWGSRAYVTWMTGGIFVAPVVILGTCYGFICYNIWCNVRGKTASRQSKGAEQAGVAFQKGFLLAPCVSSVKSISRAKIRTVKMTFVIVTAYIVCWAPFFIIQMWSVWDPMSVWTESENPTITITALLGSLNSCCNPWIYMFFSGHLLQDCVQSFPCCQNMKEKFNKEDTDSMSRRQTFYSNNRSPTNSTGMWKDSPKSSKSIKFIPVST
# [3] = pH stability; type: physicochemical
# Protocol: 0.15 mg of the test compound is dissolved in 0.1 ml dimethylsulfoxide and 0.4 ml acetonitrile. For complete dissolution the HPLC vial with the sample solution is shaken and treated with ultrasonic irradiation. Then 1.0 ml of the respective buffer solution is added and the sample is vortexed. The sample solution is analyzed by HPLC to determine the amount of the test compound at a particular time over a period of 24 h at 37° C. The peak areas in percentage are used for quantification.
# pH 4.0: Fluka buffer, Order No. 33643 (11.76 g citric acid, 2.57 g sodium chloride and 2.72 g sodium hydroxide).
# pH 7.4: 90 g of sodium chloride, 13.61 g of potassium dihydrogen phosphate and 83.35 g of 1 M sodium hydroxide solution are made up to 1 litre with Millipore water and then diluted 1:10. Adjust with phosphoric acid to pH=7.4.
# pH 10: Fluka buffer, Order No. 33649 (4.77 g Borax, 0.73 g sodium hydroxide).
# 15 μl portions of the sample solution are analysed by HPLC at different times (0 h, 1 h, 2 h, 4 h and 24 h) at 37° C. The peak areas in percentage are used for quantification.
# The ratios of the peak area (F) at different times in relation to the peak area at the starting point are shown in Table 8A for representative examples: […]
# [4] = Tris buffer pH 8.5, pH 8.5, aqueous buffer, pH = 8.5 Tris buffer
# [5] = citrate buffer pH 4, pH 4, aqueous buffer, pH = 4 citrate buffer
# [6] = phosphate buffer pH 7, pH 7, aqueous buffer, pH = 7.0 buffer
smiles,measurement,setting,value
"NC(=O)c1nc(Cn2nc(-c3ccc(Cl)cc3)n(C[C@H](OP(=O)(O)O)C(F)(F)F)c2=O)nn1-c1ncccc1C(F)(F)F [Example 1, (2S)-3-[1-({5-Carbamoyl-1-[3-(trifluoromethyl)pyridin-2-yl]-1H-1,2,4-triazol-3-yl}methyl)-3-(4-chlorophenyl)-5-oxo-1,5-dihydro-4H-1,2,4-triazol-4-yl]-1,1,1-trifluoropropan-2-yl Dihydrogen Phosphate]",solubility at 24 h,[1]; [4],> 500 µg/mL
same,solubility at 24 h,[1]; [5],> 500 µg/mL
same,solubility at 24 h,[1]; [6],> 500 µg/mL
same,IC50,[2],15.7 nM
same,ratio IC50 hV2/hV1a,[2],12.3
same,% Test Compound after 4 h [F(t = 4 h) × 100/F(t = 0 h)],"[3]; buffer pH 4, 37° C.",100%
same,% Test Compound after 24 h [F(t = 24 h) × 100/F(t = 0 h)],"[3]; buffer pH 4, 37° C.",100%
same,% Test Compound after 4 h [F(t = 4 h) × 100/F(t = 0 h)],"[3]; buffer pH 7.4, 37° C.",99%
same,% Test Compound after 24 h [F(t = 24 h) × 100/F(t = 0 h)],"[3]; buffer pH 7.4, 37° C.",99%
same,% Test Compound after 4 h [F(t = 4 h) × 100/F(t = 0 h)],"[3]; buffer pH 10, 37° C.",99%
same,% Test Compound after 24 h [F(t = 24 h) × 100/F(t = 0 h)],"[3]; buffer pH 10, 37° C.",98%
"NC(=O)c1nc(Cn2nc(-c3ccc(Cl)cc3)n(C[C@H](O)C(F)(F)F)c2=O)nn1-c1ncccc1C(F)(F)F [Example 4A, 3-({3-(4-Chlorophenyl)-5-oxo-4-[(2S)-3,3,3-trifluoro-2-hydroxypropyl]-4,5-dihydro-1H-1,2,4-triazol-1-yl}methyl)-1-[3-(trifluoromethyl)pyridin-2-yl]-1H-1,2,4-triazole-5-carboxamide]",solubility at 24 h,[1]; [4],6.7 µg/mL
same,solubility at 24 h,[1]; [5],8.7 µg/mL
same,Solubility,[1]; pH = 7.0 buffer,not detectable
same,ratio IC50 hV2/hV1a,[2],141.0
"NC(=O)c1nc(Cn2nc(-c3ccc(Cl)cc3)n(C[C@H](OP(=O)(O)O)C(F)(F)F)c2=O)nn1-c1ccccc1C(F)(F)F [Example 10, (2S)-3-[1-({5-Carbamoyl-1-[2-(trifluoromethyl)phenyl]-1H-1,2,4-triazol-3-yl}methyl)-3-(4-chlorophenyl)-5-oxo-1,5-dihydro-4H-1,2,4-triazol-4-yl]-1,1,1-trifluoropropan-2-yl Dihydrogen Phosphate]",solubility at 24 h,[1]; [4],479 µg/mL
same,solubility at 24 h,[1]; [5],454 µg/mL
same,solubility at 24 h,[1]; [6],> 500 µg/mL
same,IC50,[2],10.6 nM
same,ratio IC50 hV2/hV1a,[2],4.4
same,% Test Compound after 4 h [F(t = 4 h) × 100/F(t = 0 h)],"[3]; buffer pH 4, 37° C.",100%
same,% Test Compound after 24 h [F(t = 24 h) × 100/F(t = 0 h)],"[3]; buffer pH 4, 37° C.",100%
same,% Test Compound after 4 h [F(t = 4 h) × 100/F(t = 0 h)],"[3]; buffer pH 7.4, 37° C.",100%
same,% Test Compound after 24 h [F(t = 24 h) × 100/F(t = 0 h)],"[3]; buffer pH 7.4, 37° C.",100%
"NC(=O)c1nc(Cn2nc(-c3ccc(Cl)cc3)n(C[C@H](OP(=O)(O)O)C(F)(F)F)c2=O)nn1-c1ncccc1Cl [Example 17, (2S)-3-[1-{[5-Carbamoyl-1-(3-chloropyridin-2-yl)-1H-1,2,4-triazol-3-yl]methyl}-3-(4-chloro-phenyl)-5-oxo-1,5-dihydro-4H-1,2,4-triazol-4-yl]-1,1,1-trifluoropropan-2-yl Dihydrogen Phosphate]",solubility at 24 h,[1]; [4],> 500 µg/mL
same,solubility at 24 h,[1]; [5],> 500 µg/mL
same,solubility at 24 h,[1]; [6],> 500 µg/mL
same,IC50,[2],9.8 nM
same,ratio IC50 hV2/hV1a,[2],13.3
same,% Test Compound after 4 h [F(t = 4 h) × 100/F(t = 0 h)],"[3]; buffer pH 4, 37° C.",100%
same,% Test Compound after 24 h [F(t = 24 h) × 100/F(t = 0 h)],"[3]; buffer pH 4, 37° C.",100%
same,% Test Compound after 4 h [F(t = 4 h) × 100/F(t = 0 h)],"[3]; buffer pH 7.4, 37° C.",100%
same,% Test Compound after 24 h [F(t = 24 h) × 100/F(t = 0 h)],"[3]; buffer pH 7.4, 37° C.",100%
